Tested on: E. coli
Assay: ESBL NDP test using cultured strains
Format: biochemical, Escherichia coli
Design: key: (+) and (−) referred to color change being, red to yellow or unchanged, respectively; (+) and (−) referred to color change being, red to yellow or unchanged, respectively
Procedure: Strains were isolated on Mueller-Hinton agar (Biorad, Marnes-la-Coquette, France) and incubated at 37° C. for 16 h to 24 h before performing the NDP rapid ESBL test as follows. One calibrated inoculated loop (10 μl) of the tested strain was resuspended in 150 μl of 20 mM Tris-HCl lysis buffer previously distributed in Microbead tubes (Ultraclean Microbial DNA isolation kit Bead Tubes, MO BIO Laboratories, Carlsbad, USA). Mechanical lysis of bacteria was performed by strong agitation of Microbead tubes using a vortex adapter (MO BIO Laboratories) for 30 min at room temperature. This bacterial suspension was centrifuged at 10,000×g at room temperature for 5 min. Thirty μl of the supernatant was mixed in a well of a 96-well tray with 100 μl of a 1 ml solution made of 3 mg of purified cefotaxime sodium salt (Sigma-Aldrich, Saint-Quentin-Fallavier, France) in a pH 7.8 phenol red solution. […]. The phenol red solution was made by taking 2 ml of a concentrated pH 8 phenol solution (made from a mixture of phenol red 0.5% in distilled water) to which 16.6 ml of distilled water was added. The pH value was then adjusted to a 7.8 value by adding drops of a 1 N NaOH solution. Mixture of the phenol red solution and the enzymatic suspension being tested was incubated at 37° C. for 30 min. Similarly, culture extracts were analyzed in wells containing cefotaxime and tazobactam (4 mg/ml). Other concentrations of tazobactam and other ß-lactamase inhibitors were tested giving less clear results (data not shown). […] This definition of test positivity will be applied throughout the study.

## CO/N=C(\C(=O)N[C@@H]1C(=O)N2C(C(=O)O)=C(COC(C)=O)CS[C@H]12)c1csc(N)n1 [CTX, cefotaxime]
E. coli 09.11, TEM-52
  ESBL NDP Test from: Colonies: +
E. coli 09.123, TEM-133
  ESBL NDP Test from: Colonies: −
E. coli 09.124, TEM-52
  ESBL NDP Test from: Colonies: +
E. coli 09.129, SHV-12
  ESBL NDP Test from: Colonies: +
E. coli 09.173, SHV-12
  ESBL NDP Test from: Colonies: +
E. coli 09.187, SHV-2a
  ESBL NDP Test from: Colonies: +
E. coli 09.193, SHV-12
  ESBL NDP Test from: Colonies: +
E. coli 09.207, SHV-2a
  ESBL NDP Test from: Colonies: +
E. coli 09.225, TEM-52
  ESBL NDP Test from: Colonies: +
E. coli 09.40, TEM-52
  ESBL NDP Test from: Colonies: +
E. coli 09.41, SHV-12
  ESBL NDP Test from: Colonies: +
E. coli 09.66, TEM-52
  ESBL NDP Test from: Colonies: +
E. coli 09.73, TEM-52
  ESBL NDP Test from: Colonies: +
E. coli 09.79, SHV-12
  ESBL NDP Test from: Colonies: +
E. coli 09.92, TEM-52
  ESBL NDP Test from: Colonies: +
E. coli 10.104, CTX-M-1
  ESBL NDP Test from: Colonies: +
E. coli 10.11, CTX-M-14
  ESBL NDP Test from: Colonies: +
E. coli 10.121, CTX-M-2
  ESBL NDP Test from: Colonies: +
E. coli 10.124, CTX-M-14
  ESBL NDP Test from: Colonies: +
E. coli 10.130, CTX-M-3
  ESBL NDP Test from: Colonies: +
E. coli 10.13, CTX-M-14
  ESBL NDP Test from: Colonies: +
E. coli 10.132, CTX-M-2
  ESBL NDP Test from: Colonies: +
E. coli 10.16, CTX-M-15
  ESBL NDP Test from: Colonies: +
E. coli 10.178, CTX-M-27
  ESBL NDP Test from: Colonies: +
E. coli 10.198, CTX-M-27
  ESBL NDP Test from: Colonies: +
E. coli 10.204, CTX-M-27
  ESBL NDP Test from: Colonies: +
E. coli 10.207, CTX-M-27
  ESBL NDP Test from: Colonies: +
E. coli 10.23, CTX-M-2
  ESBL NDP Test from: Colonies: +
E. coli 10.32, CTX-M-14
  ESBL NDP Test from: Colonies: +
E. coli 10.33, CTX-M-15
  ESBL NDP Test from: Colonies: +
E. coli 10.36, CTX-M-1
  ESBL NDP Test from: Colonies: +
E. coli 10.38, CTX-M-1
  ESBL NDP Test from: Colonies: +
E. coli 10.43, CTX-M-15
  ESBL NDP Test from: Colonies: +
E. coli 10.46, CTX-M-14
  ESBL NDP Test from: Colonies: +
E. coli 10.49, CTX-M-15
  ESBL NDP Test from: Colonies: +
E. coli 10.53, CTX-M-9
  ESBL NDP Test from: Colonies: +
E. coli 10.64, CTX-M-32
  ESBL NDP Test from: Colonies: +
E. coli 10.73, CTX-M-27
  ESBL NDP Test from: Colonies: +
E. coli 10.74, CTX-M-15
  ESBL NDP Test from: Colonies: +
E. coli 10.95, CTX-M-1
  ESBL NDP Test from: Colonies: +
E. coli (Belgium), ACC-1
  ESBL NDP Test from: Colonies: −
E. coli A7R5, SHV-3
  ESBL NDP Test from: Colonies: +
E. coli ACC-1, n=1, first line
  Test (color change): −
E. coli ACC-1, n=1, second line
  Test (color change): +
E. coli BG 1106 5698, Penicillinase
  ESBL NDP Test from: Colonies: −
E. coli BG 1106 6252, Wild-type
  ESBL NDP Test from: Colonies: −
E. coli BG 1106 6367, Wild-type
  ESBL NDP Test from: Colonies: −
E. coli BG 1106 7202, Penicillinase
  ESBL NDP Test from: Colonies: −
E. coli BG 1107 8873, Wild-type
  ESBL NDP Test from: Colonies: −
E. coli BG 1108 6157, Penicillinase
  ESBL NDP Test from: Colonies: −
E. coli C5O52, CTX-M-28
  ESBL NDP Test from: Colonies: +
E. coli CMY-2, n=1
  Test (color change): +
E. coli CTX-M-1, n=16
  Test (color change): +
E. coli CTX-M-2, n=3
  Test (color change): +
E. coli CTX-M-3, n=1
  Test (color change): +
E. coli CTX-M-9, n=1
  Test (color change): +
E. coli CTX-M-14, n=15
  Test (color change): +
E. coli CTX-M-15, n=46
  Test (color change): +
E. coli CTX-M-27, n=6
  Test (color change): +
E. coli CTX-M-28, n=1
  Test (color change): +
E. coli CTX-M-32, n=1
  Test (color change): +
E. coli CTX-M-97, n=1
  Test (color change): +
E. coli DHA-1, n=1
  Test (color change): −
E. coli Ec13 SYD, CMY-2
  ESBL NDP Test from: Colonies: +
E. coli GOU, DHA-1
  ESBL NDP Test from: Colonies: −
E. coli LOU, ACC-1
  ESBL NDP Test from: Colonies: +
E. coli SHV-2a, n=3
  Test (color change): +
E. coli SHV-3, n=1
  Test (color change): +
E. coli SHV-12, n=1
  Test (color change): −
E. coli SHV-12, n=6
  Test (color change): +
E. coli TEM-1 penicillinase, n=5
  Test (color change): −
E. coli TEM-12, n=1
  Test (color change): −
E. coli TEM-29, n=2
  Test (color change): −
E. coli TEM-52, n=8
  Test (color change): +
E. coli TEM-133, n=1
  Test (color change): −
E. coli VEB-1, n=1
  Test (color change): +
E. coli Wild-type, no resistance, n=5
  Test (color change): −
